Measurements from patent publication US10266526B2, “Substituted 1,2,3-triazoles as SMYD inhibitors for treating cancer” (EPIZYME, INC., priority 2014, dated 2019).
Where two headings read alike, the source gives them in different places.

Molecular target: SMYD2 (Homo sapiens (Human), UniProt Q9NRG4)
Assay: SMYD2 biochemical assay (SMYD2 enzyme assay on peptide substrate, 3H-SAM Flashplate)
[1] = read-out: SMYD2 Biochem IC50, IC50 values are an average of n = 1 to n = 50

SMYD2, sequence (Q9NRG4 whole entry): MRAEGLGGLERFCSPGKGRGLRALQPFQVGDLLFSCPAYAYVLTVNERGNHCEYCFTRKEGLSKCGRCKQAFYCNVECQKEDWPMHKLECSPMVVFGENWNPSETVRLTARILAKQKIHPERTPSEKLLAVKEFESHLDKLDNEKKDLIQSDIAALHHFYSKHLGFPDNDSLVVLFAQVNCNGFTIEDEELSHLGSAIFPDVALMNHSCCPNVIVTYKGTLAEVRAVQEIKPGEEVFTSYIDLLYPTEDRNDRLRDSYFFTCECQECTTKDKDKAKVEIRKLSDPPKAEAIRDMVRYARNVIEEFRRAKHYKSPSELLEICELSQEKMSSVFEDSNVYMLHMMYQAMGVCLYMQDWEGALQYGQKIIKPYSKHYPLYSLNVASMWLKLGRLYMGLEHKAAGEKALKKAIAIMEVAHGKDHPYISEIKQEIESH

| SMILES | IC50 [1] | IC50 |
| --- | --- | --- |
| CN1CCC(NC(=O)c2cc(C3CC3)cnn2)CC1 [compound 917, 5-cyclopropyl-N-(1-methylpiperidin-4-yl)pyridazine-3-carboxamide] | > 50000 nM | – |
| O=C(NC1CN(Cc2cn(Cc3ccccc3)cn2)C1)c1cn(C2CC2)nn1 [compound 795, N-{1-[(1-benzyl-1H-imidazol-4-yl)methyl]azetidin-3-yl}-1-cyclopropyl-1H-1,2,3-triazole-4-carboxamide] | 7150 nM | – |
| C[C@H](c1ccccc1)N1C[C@@H](NC(=O)c2cn(C3CC3)nn2)C1(C)C (racemic) [compound 984, rac-1-cyclopropyl-N-((R)-2,2-dimethyl-1-((R)-1-phenylethyl)azetidin-3-yl)-1H-1,2,3-triazole-4-carboxamide] | – | 18900 nM |
| CC(NC(=O)c1cc(C2CC2)cnn1)C1CN(C(C)C)C1 (stereo not drawn) [compound 840, 5-cyclopropyl-N-{1-[1-(propan-2-yl)azetidin-3-yl]ethyl}pyridazine-3-carboxamide] | 36800 nM | – |
| CC(NC(=O)c1cc(C2CC2)cnn1)C1CCCCN1C (stereo not drawn) [compound 981, 5-cyclopropyl-N-(1-(1-methylpiperidin-2-yl)ethyl)pyridazine-3-carboxamide] | > 50000 nM | – |
| CC(c1nccs1)N1CC(NC(=O)c2cn(C3CC3)nn2)C1 (stereo not drawn) [compound 716, 1-cyclopropyl-N-{1-[1-(1,3-thiazol-2-yl)ethyl]azetidin-3-yl}-1H-1,2,3-triazole-4-carboxamide] | 30700 nM | – |
| CC(c1cc(F)ccc1F)N1CC(NC(=O)c2cn(C3CC3)nn2)C1 (stereo not drawn) [compound 746, 1-cyclopropyl-N-{1-[1-(2,5-difluorophenyl)ethyl]azetidin-3-yl}-1H-1,2,3-triazole-4-carboxamide] | 7780 nM | – |

Next, values leading:

| IC50 [1] | IC50 | SMILES |
| --- | --- | --- |
| 334 nM | – | CC(c1ccc(NCc2ccccc2)cc1)N1CC(NC(=O)c2cn(C3CC3)nn2)C1 (stereo not drawn) [compound 862, N-(1-{1-[4-(benzylamino)phenyl]ethyl}azetidin-3-yl)-1-cyclopropyl-1H-1,2,3-triazole-4-carboxamide] |
| 1910 nM | – | O=C(NC1CN(CCCO)C1)c1cn(C2CC2)nn1 [compound 707, 1-cyclopropyl-N-[1-(3-hydroxypropyl)azetidin-3-yl]-1H-1,2,3-triazole-4-carboxamide] |
| 2000 nM | – | O=C(NC1CN(Cc2cnn(CC3CCOC3)c2)C1)c1cn(C2CC2)nn1 (stereo not drawn) [compound 950, 1-cyclopropyl-N-(1-((1-((tetrahydrofuran-3-yl)methyl)-1H-pyrazol-4-yl)methyl)azetidin-3-yl)-1H-1,2,3-triazole-4-carboxamide] |
| 1.2 nM | – | O=C(NC1CN(Cc2cnn(Cc3ccc(Cl)cc3)c2)C1)c1cc(C2CC2)cnn1 [compound 929, N-(1-((1-(4-chlorobenzyl)-1H-pyrazol-4-yl)methyl)azetidin-3-yl)-5-cyclopropylpyridazine-3-carboxamide] |
| 585 nM | – | CC(C)N1CC(NC(=O)c2cn(C3CC3)nn2)C1 [compound 663, 1-cyclopropyl-N-[1-(propan-2-yl)azetidin-3-yl]-1H-1,2,3-triazole-4-carboxamide] |
| 1620 nM | – | CC(c1ccc2c(c1)NC(=O)CO2)N1CC(NC(=O)c2cn(C3CC3)nn2)C1 (stereo not drawn) [compound 774, 1-cyclopropyl-N-{1-[1-(3-oxo-3,4-dihydro-2H-1,4-benzoxazin-6-yl)ethyl]azetidin-3-yl}-1H-1,2,3-triazole-4-carboxamide] |
| 11 nM | – | O=C(NC1CN(Cc2cnn(Cc3ccc(Cl)cc3)c2)C1)c1nc(C2CC2)c[nH]1 [compound 927, N-(1-((1-(4-chlorobenzyl)-1H-pyrazol-4-yl)methyl)azetidin-3-yl)-4-cyclopropyl-1H-imidazole-2-carboxamide] |
| 3600 nM | – | COc1cc(C(C)N2CC(NC(=O)c3cn(C4CC4)nn3)C2)ccc1OCc1ccccc1 (stereo not drawn) [compound 939, N-(1-(1-(4-(benzyloxy)-3-methoxyphenyl)ethyl)azetidin-3-yl)-1-cyclopropyl-1H-1,2,3-triazole-4-carboxamide] |
